Molecules are shown by their SMILES.

In one assay the target is CDK2 (human) (UniProt P24941). Nature of the assay: Cell-Based Assay. The settings on record: sw480.
`COc1cc[nH]c1/C=C1\C(=O)Nc2ccc3[nH]c(C)nc3c21` gave a half-inhibitory concentration (IC50) below 1 µM.

The target of another assay is CDK2 (UniProt P24941). The assay can be described thus: Enzyme Assay.
Conditions: not given
Molecule `COc1cc[nH]c1/C=C1\C(=O)Nc2ccc3[nH]c(CCc4ccc(O)cc4)nc3c21` showed an IC50 below 3.5 µM.
Still for that read-out and setting: with `COc1cc[nH]c1/C=C1\C(=O)Nc2ccc3[nH]c(NC(C)c4ccccc4)nc3c21` (configuration not stated) the figure was below 3.5 µM; with `COc1ccc(Cc2nc3c4c(ccc3[nH]2)NC(=O)/C4=C\c2[nH]ccc2OC)cc1`, below 3.5 µM; with `COc1cc[nH]c1/C=C1\C(=O)Nc2ccc3[nH]c(-c4ccc(C(=O)O)cc4)nc3c21`, below 3.5 µM.
For `O=C1Nc2ccc3[nH]c(-c4ccccc4)nc3c2/C1=C/c1ccc[nH]1`, the IC50 was below 3.5 µM.
On the same count and under the same terms, for `Cc1nc[nH]c1/C=C1\C(=O)Nc2ccc([N+](=O)[O-])c(N=[N+]=[N-])c21` the value was below 3.5 µM; for `COc1cc[nH]c1/C=C1\C(=O)Nc2ccc3[nH]c(C)nc3c21`, below 3.5 µM; for `COc1cc[nH]c1/C=C1\C(=O)Nc2ccc3[nH]c(CCCc4ccccc4)nc3c21`, below 3.5 µM.
On the same count and under the same terms, with `COCCCNc1nc2c3c(ccc2[nH]1)NC(=O)/C3=C\c1[nH]ccc1OC` the figure was below 3.5 µM; with `Cc1nc[nH]c1/C=C1\C(=O)Nc2ccc([N+](=O)[O-])c(F)c21`, below 3.5 µM; with `COc1cc[nH]c1/C=C1\C(=O)Nc2ccc3[nH]c(-c4ccccc4O)nc3c21`, below 3.5 µM.
On to `Cc1nc[nH]c1/C=C1\C(=O)Nc2ccc(N)c(N)c21`, for which the 50% inhibitory concentration (IC50) is below 3.5 µM.
For `COc1cc[nH]c1/C=C1\C(=O)Nc2ccc3[nH]c(C(O)c4ccccc4)nc3c21` (configuration not stated), the concentration for half-maximal inhibition (IC50) is below 3.5 µM.
Turning to `COc1cc[nH]c1/C=C1\C(=O)Nc2ccc3[nH]c(Nc4ccc(N(C)C)cc4)nc3c21`, the IC50 is below 3.5 µM.
On the same count and under the same terms, for `COc1cc[nH]c1/C=C1\C(=O)Nc2ccc3nc[nH]c3c21` the value was below 3.5 µM; for `Cc1nc[nH]c1/C=C1\C(=O)Nc2ccc3[nH]cnc3c21`, below 3.5 µM; for `Cc1nc[nH]c1/C=C1\C(=O)Nc2ccc([N+](=O)[O-])c(N)c21`, below 3.5 µM.
In turn, `COc1cc[nH]c1/C=C1\C(=O)Nc2ccc3[nH]c(NCC4CCCO4)nc3c21` (configuration not stated) gave a concentration for half-maximal inhibition (IC50) below 3.5 µM.
Same read-out and setting: with `COc1cc[nH]c1/C=C1\C(=O)Nc2ccc3[nH]c(-c4ccccc4)nc3c21` the figure was below 3.5 µM.

Still in this assay, the particulars now being: concentration not given here.
`COc1cc[nH]c1/C=C1\C(=O)Nc2ccc3nc(NCc4ccc5c(c4)OCO5)[nH]c3c21` returned an inhibition below 50%.
`COC(=O)c1ccc(Nc2nc3c4c(ccc3[nH]2)NC(=O)/C4=C\c2[nH]ccc2OC)cc1` had an inhibition below 50%.
Same read-out and setting: with `COc1ccc(Nc2nc3c4c(ccc3[nH]2)NC(=O)/C4=C\c2[nH]ccc2OC)cc1OC` the figure was below 50%; with `COc1ccc(Nc2nc3c4c(ccc3[nH]2)NC(=O)/C4=C\c2[nH]ccc2OC)cc1`, below 50%; with `COc1cc[nH]c1/C=C1\C(=O)Nc2ccc3[nH]c(NCCCCc4ccccc4)nc3c21`, below 50%.
Take `COc1ccc(CCNc2nc3c4c(ccc3[nH]2)NC(=O)/C4=C\c2[nH]ccc2OC)cc1OC`: the inhibition was below 50%.
Same read-out and setting: with `COc1cc[nH]c1/C=C1\C(=O)Nc2ccc3nc(NCc4cccc5ccccc45)[nH]c3c21` the figure was below 50%; with `COc1cc[nH]c1/C=C1\C(=O)Nc2ccc3nc(Nc4ccc5c(c4)CCC5)[nH]c3c21`, below 50%; with `COc1ccccc1Nc1nc2c3c(ccc2[nH]1)NC(=O)/C3=C\c1[nH]ccc1OC`, below 50%.
On the same count and under the same terms, for `COc1cc[nH]c1/C=C1\C(=O)Nc2ccc3[nH]c(Nc4cccc(C(C)=O)c4)nc3c21` the value was below 50%; for `CCOC(=O)c1ccc(Nc2nc3c4c(ccc3[nH]2)NC(=O)/C4=C\c2[nH]ccc2OC)cc1`, below 50%; for `COc1cc[nH]c1/C=C1\C(=O)Nc2ccc3nc(NCCCc4ccccc4)[nH]c3c21`, below 50%.

(Values after the Kinase Knowledgebase extract (Sharma et al. 2016).)
